From article PMC12071365, “Discovery of Boronic Acids-Based β-Lactamase Inhibitors Through In Situ Click Chemistry” (International Journal of Molecular Sciences, 2025)

Tests used:
AmpC [1] = target: T1, AmpC (Escherichia coli, UniProt P00811); experiment: Competitive inhibition assay with nitrocefin, Ki; format: biochemical; design: made in house; conditions: AmpC; values in nM
Procedure: (§1) The β-lactamases used in the present study were from a Clinical Biochemistry Laboratory collection (Department of Biotechnological and Applied Clinical Sciences, University of L’Aquila, L’Aquila, Italy). […] The concentration of each enzyme was determined by a Bradford assay.
The plot v0/vi versus [I] yielded a straight line of slope KM/(KM + S) × Ki.
Figure 9 Compounds synthesised and their biological evaluation. AC = Amplification coefficient. […] Light blue indicates the compounds from the AmpC screening.

AmpC [2] = target: T1, AmpC; design: made in house; conditions: AmpC 20 mol%; warhead 3 + alkyne cluster; 37 °C, 24 h
Procedure: Following the same conditions used for the multicomponent screening with KPC-2, the in situ click chemistry experiment was performed using AmpC as template.
(§2) Binary and multicomponent KTGS. […] The microtube was shaken at 300 rpm at 37 °C for 24 h. Reactions were transferred into a LC–MS vial and directly injected (10 µL) for liquid chromatography–mass spectrometry (LC–MS). Reactions were analysed with an Ultimate 3000 UHPLC coupled to a Q-exactive hybrid quadrupole-orbitrap mass spectrometer via an HESI-II heated electrospray ionisation source. The chromatographic separation was performed injecting a 10 µL sample volume on a Hypersil Gold C18 100 × 2.1 mm, 1.9 µm column (Thermo Fisher Scientific), kept at 30 °C eluting with 0.3 mL/min flow of ultrapure water (A) and methanol (B), both with 0.1% formic acid as mobile phase. […] A data-dependent mass spectrometric data acquisition strategy was used for full MS/DD-MS2. […] An inclusion list was eventually used to target the MS2 spectra acquisition of preferred ion species. Detection was based on calculated [M+H]^+ and [M−H]^− molecular ions with a 5 ppm accuracy tolerance for their respective ion chromatogram extraction. Peak retention time and area of detected target compounds was used for their detection and semi-quantitative evaluation in between reaction batches.
For controls (buffer and BSA), AmpC/KPC-2 is replaced with no enzyme (buffer volume 95 µL) and BSA (stock 100 µM, final concentration 5 µM, buffer volume 90 µL). Hits were identified in each cluster by mass and retention time and compared with both controls (buffer and BSA) and synthetically prepared triazoles obtained in mixtures.

AmpC [3] = target: T1, AmpC; experiment: Binary in situ click chemistry between 3 and Al-12, with or without SM23; design: made in house; conditions: binary 3 + Al-12; AmpC 20 mol%; SM23 1 mol%
Procedure: as §2
For controls (buffer and BSA), AmpC/KPC-2 is replaced with no enzyme (buffer volume 95 µL) and BSA (stock 100 µM, final concentration 5 µM, buffer volume 90 µL). […]

AmpC [4] = target: T1, AmpC; experiment: LC-MS t-SIM detection of boronic acids incubated with AmpC; design: made in house; conditions: 24 h, 37 °C
Description: Given that boronic acids act as transition-state inhibitors by binding the catalytic serine of β-lactamases through a reversible covalent bond, we aimed to determine whether the in situ click chemistry reaction products were quantitatively detected during LC–MS analysis. Although boronic acids are reversible binders, their fast on–slow off behaviour raised concerns that triazole product formation might be underestimated due to covalent adducts forming with the protein target. To investigate this, compound 10a, warhead 3, and compounds 8 and 9 were incubated with AmpC (1:1 or 1:5 protein:compound ratio), and their detection was monitored over 24 h (Figure 10). […] The percentage of boronic acids detected was estimated using peak area measurements in the LC–MS-targeted SIM mode, with quantification being performed using calibration curves. The experiments were conducted at 37 °C in a 95:5 sodium phosphate 50 mM pH 7.0:DMSO mixture.
Figure 10 The % of detection of 10a (grey box), 3 (yellow box), 8 (green box), and 9 (blue box) over the course of the 24 h using the t-SIM method. Each cpd was tested in presence of 20% mol of AmpC or stoichiometric amount of AmpC. Each box includes 4 columns corresponding to % boronic acid detected at a certain time point (0, 8, 16, and 24 h).

OXA-48 = OXA-48 (Klebsiella pneumoniae, UniProt Q6XEC0); experiment: KM of reporter substrate (Hanes-Woolf); format: biochemical; conditions: NaPi 50 mM pH 7.0
Procedure: (§3) The β-lactamases used in the present study were from a Clinical Biochemistry Laboratory collection (Department of Biotechnological and Applied Clinical Sciences, University of L’Aquila, L’Aquila, Italy). All enzymes show a purity degree of higher than 95%. The concentration of each enzyme was determined by a Bradford assay.

ADC-7 = target: ADC-7; design: method as in PMID 26102369, PMID 34970229, PMID 37358467, PMID 26729491; conditions: ref [17],[19],[35],[36]; cited from earlier work
NDM-1 = NDM-1 (Klebsiella pneumoniae, UniProt C7C422); conditions: read-out: KM substrate, HEPES 20 mM pH 7.0 + 20 µM Zn
Procedure: as §1

AmpC [5] = target: T1, AmpC; conditions: read-out: KM substrate; pH 7
Procedure: as §1

KPC-53 = KPC-53 (Klebsiella pneumoniae, UniProt Q9F663, DUP166-167/H272Y); conditions: read-out: KM substrate, NaPi 50 mM pH 7.0
Procedure: as §3

SHV-12 = SHV-12 (Klebsiella pneumoniae, UniProt P0AD64, E235K/G234S/L31Q); conditions: read-out: KM substrate, NaPi 50 mM pH 7.0
Procedure: as §3

KPC-2 = target: T2, KPC-2 (Klebsiella pneumoniae, UniProt Q9F663); design: method as in PMID 26102369, PMID 34970229, PMID 37358467, PMID 26729491; conditions: ref [17],[19],[35],[36]; cited from earlier work
T2 construct: made in house

T1 sequence (P00811 20-377): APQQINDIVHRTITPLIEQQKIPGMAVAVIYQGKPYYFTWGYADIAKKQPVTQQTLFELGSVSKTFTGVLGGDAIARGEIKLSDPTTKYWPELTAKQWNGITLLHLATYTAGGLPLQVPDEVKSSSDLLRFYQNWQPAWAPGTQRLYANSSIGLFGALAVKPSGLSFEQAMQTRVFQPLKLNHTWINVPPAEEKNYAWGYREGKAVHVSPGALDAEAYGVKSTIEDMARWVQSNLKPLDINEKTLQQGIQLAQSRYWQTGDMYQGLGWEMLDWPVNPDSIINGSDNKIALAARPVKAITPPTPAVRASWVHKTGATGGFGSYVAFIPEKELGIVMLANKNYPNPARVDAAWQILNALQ

SMILES: O=S(=O)(NCc1cnnn1Cc1cccc(B(O)O)c1)C1CCCCC1 [10a]
- Ki (AmpC [1]): 140 nM
- AC (amplification coefficient) (AmpC [2]): 5-6
- AC 10/10a (AmpC [3]): 1-2
- % boronic acid detected (remaining) (AmpC [4]; 20 mol% AmpC, sodium phosphate pH 7.0:DMSO 95:5): 83%
- boronic acid level detected (AmpC [4]; stoichiometric AmpC): remained stable

SMILES: C[C@@H](O)[C@H]1C(=O)N2C(C(=O)O)=C(SCCN=CN)C[C@H]12 [IMI, Imipenem]
- Km (OXA-48): 13 ± 1 µM

SMILES: Nc1nnc(SCC(=O)N[C@@H](Cn2cc(C(=O)O)nn2)B(O)O)s1 [MB076]
- Ki (ADC-7): 210 nM

SMILES: C[C@@H](O)[C@H]1C(=O)N2C(C(=O)O)=C(S[C@@H]3CN[C@H](C(=O)N(C)C)C3)[C@H](C)[C@H]12 [MPM, Meropenem]
- Km (NDM-1): 80 ± 1 µM

SMILES: O=C(Cc1cccs1)N[C@@H]1C(=O)N2C(C(=O)O)=C(/C=C/c3ccc([N+](=O)[O-])cc3[N+](=O)[O-])CS[C@H]12 [NCF, Nitrocefin]
- Km (AmpC [5]): 118 ± 2 µM
- Km (KPC-53): 106 ± 2 µM
- Km (SHV-12): 50 ± 3 µM

SMILES: O=C(Cc1cccs1)NC(Cn1cc(C(=O)O)nn1)B(O)O (stereo not shown) [S02030]
- IC50 (KPC-2): 80 nM
- Ki (ADC-7): 45 nM
